Data: US6031071A, “Methods of generating novel peptides” (Biophage, Inc., priority 1996, dated 2000)
Entries after “also recorded” stand apart in the source; their conditions may differ.

Columns and labels:
[1] = molecular target: phage V6 (peptide V6) binding to doxorubicin; test: Displacement assay: inhibition of V6 phage binding to doxorubicin-BSA coated wells by drugs; conditions: for IC50: read-out: IC50 for inhibiting the binding of phages V6 to doxorubicin; for blocking/displacement of the interaction of the phage with doxorubicin: result in words
Experimental: Phage V6 (10^10 virions) was preincubated for 1 hr at room temperature in 100 μl of 0.1% BSA/PBS buffer containing different drug concentrations (10^-4 M to 10^-9 M), and aliquots were added to microtiter wells, which were […] with doxorubicin-BSA as previously described in Example II. After a 1-h incubation at room temperature, the wells were washed 12 times with PBS and the remaining bound phages eluted with 50 μl of 0.1 M HCl (pH adjusted to 2.2 with glycine). The phages were quantitated by titration on log phase of E. coli K91Kan cells plated on LB plates with […] tetracycline (Parmley & Smith, Gene, 73: 305-318 (1988)).

[2] = ELISA of phage binding to immobilized doxo-BSA, detected with polyclonal anti-phage serum; conditions: result in words
Experimental: In order to characterize the binding of individual clones, four different clones V6, V10, V12 and A4 together with the control phage X1 were analyzed for binding to doxorubicin in an ELISA experiment in which polyclonal anti-phage antibodies were used to detect bound phages. Antisera were raised against fd-Tet phage lacking insertion into pIII. Three rabbits were injected intramuscularly with 0.5 mg of fd-ted phages in Freunds complete adjuvant and then boosted three times with 0.25 mg of fd-ted phages in incomplete adjuvant at 3 weeks intervals. The titer of the antisera was measured with an ELISA using phage immobilized in Maxisorb microtiter wells as described (Motti et al., Gene, 146: 91-198 (1994)). All rabbits produced high titer antisera after the second boost. […]
Phages from the second PEG precipitation (Parmley & Smith, Gene, 73: 305-318 (1988)) were dissolved in 210 μl of 0.15 M NaCl, microfuged for 1 min, precipitated from 200 μl of the supernatant by the addition of 21.2 μl of 1 M acetic acid, and by incubation for 10 min at room temperature and 10 min on ice. […] Phage concentration was determined as described in Parmley & Smith, Gene, 73: 305-318 (1988). […] To reveal the reaction, 100 μl of ABTS solution (Kirkegaard & Perry Labs, Maryland, USA) were added, incubated for 30 min at room temperature, and read in a microplate reader. […]

[3] = ELISA control empty wells (plastic binding)
Experimental: Phages from the second PEG precipitation (Parmley & Smith, Gene, 73: 305-318 (1988)) were dissolved in 210 μl of 0.15 M NaCl, microfuged for 1 min, precipitated from 200 μl of the supernatant by the addition of 21.2 μl of 1 M acetic acid, and by incubation for 10 min at room temperature and 10 min on ice. (Scott & Smith, Science, 249: 386-390 (1990)). Phages were sedimented (microfuged, 45 min, 4 C.) and dissolved in 60 μl of TBS. Phage concentration was determined as described in Parmley & Smith, Gene, 73: 305-318 (1988). These partially purified phages were subjected to one round of screening, except that the phages were not acid eluted. Instead, blocking solution [250 μl of nonfat dry milk ([…]) in 0,05% TWEEN20 ™/TBS (TWEEN20 ™: Polysorbate 20)] was added to the wells. After a 2-h incubation at room temperature, wells were washed three times in 0.05% TWEEN20 ™/TBS. Rabbit anti-phage fd-ted serum, 100 μl of a 1:1000 dilution (in blocking solution) was added to wells and incubated overnight. Wells were washed seven times in 0.05% TWEEN20 ™/TBS and once with TBS; 100 μl of a peroxidase-conjugated goat anti-rabbit immunoglobulin were then added (Kirkegaard & Perry Labs, Maryland, USA, diluted 1:1000). […] To reveal the reaction, 100 μl of ABTS solution (Kirkegaard & Perry Labs, Maryland, USA) were added, incubated for 30 min at room temperature, and read in a microplate reader. […]

[4] = phage V6 10^10 virions preincubated 1 hr with drug 10^-4 M to 10^-9 M, doxorubicin-BSA coated wells

| Compound | IC50 [1, 4] [nM] | blocking/displacement of the interaction of the phage with doxorubicin [1] | IC50 for inhibiting the binding of phages V6 to doxorubicin [1, 4] | binding of display phage to doxorubicin (ELISA, OD405) [2] | binding of phage to plastic [3] |
| --- | --- | --- | --- | --- | --- |
| COc1cccc2c1C(=O)c1c(O)c3c(c(O)c1C2=O)C[C@@](O)(C(=O)CO)C[C@@H]3O[C@H]1C[C@H](N)[C@H](O)[C@H](C)O1 [doxorubicin] | 4.5 | could be blocked |  |  |  |
| CC[C@]1(O)C[C@@H]2CN(CCc3c([nH]c4ccccc34)[C@@](C(=O)OC)(c3cc4c(cc3OC)N(C)[C@H]3[C@@](O)(C(=O)OC)[C@H](OC(C)=O)[C@]5(CC)C=CCN6CC[C@]43[C@@H]65)C2)C1 [vinblastine] | 1.5 | displaced; also recorded: could be blocked |  |  |  |
| Nc1ccn([C@@H]2O[C@H](CO)[C@@H](O)[C@@H]2O)c(=O)n1 [Ara-C] |  |  | essentially inactive |  |  |
| VCDWWGWGIC [phage V6] |  |  |  | strong specific binding | only background binding |
